Measured values taken from PMC3959744 (Journal of medicinal chemistry, 2013).
Substitutions are numbered along the chain they refer to. Where “and” joins values, the source holds several entries; their conditions need not be identical. Equal entries are not always repeated. Entries after “also recorded” stand apart in the source; their conditions may differ.

Legend:
[1] = molecular target: T1, full-length and truncated AR (AR-3) (Homo sapiens, UniProt P10275); test: Western blot analysis of fAR and tAR-3 expression in CWR22Rv1 cells; conditions: 15 μM, 24 h
T1 sequence (P10275 1-920): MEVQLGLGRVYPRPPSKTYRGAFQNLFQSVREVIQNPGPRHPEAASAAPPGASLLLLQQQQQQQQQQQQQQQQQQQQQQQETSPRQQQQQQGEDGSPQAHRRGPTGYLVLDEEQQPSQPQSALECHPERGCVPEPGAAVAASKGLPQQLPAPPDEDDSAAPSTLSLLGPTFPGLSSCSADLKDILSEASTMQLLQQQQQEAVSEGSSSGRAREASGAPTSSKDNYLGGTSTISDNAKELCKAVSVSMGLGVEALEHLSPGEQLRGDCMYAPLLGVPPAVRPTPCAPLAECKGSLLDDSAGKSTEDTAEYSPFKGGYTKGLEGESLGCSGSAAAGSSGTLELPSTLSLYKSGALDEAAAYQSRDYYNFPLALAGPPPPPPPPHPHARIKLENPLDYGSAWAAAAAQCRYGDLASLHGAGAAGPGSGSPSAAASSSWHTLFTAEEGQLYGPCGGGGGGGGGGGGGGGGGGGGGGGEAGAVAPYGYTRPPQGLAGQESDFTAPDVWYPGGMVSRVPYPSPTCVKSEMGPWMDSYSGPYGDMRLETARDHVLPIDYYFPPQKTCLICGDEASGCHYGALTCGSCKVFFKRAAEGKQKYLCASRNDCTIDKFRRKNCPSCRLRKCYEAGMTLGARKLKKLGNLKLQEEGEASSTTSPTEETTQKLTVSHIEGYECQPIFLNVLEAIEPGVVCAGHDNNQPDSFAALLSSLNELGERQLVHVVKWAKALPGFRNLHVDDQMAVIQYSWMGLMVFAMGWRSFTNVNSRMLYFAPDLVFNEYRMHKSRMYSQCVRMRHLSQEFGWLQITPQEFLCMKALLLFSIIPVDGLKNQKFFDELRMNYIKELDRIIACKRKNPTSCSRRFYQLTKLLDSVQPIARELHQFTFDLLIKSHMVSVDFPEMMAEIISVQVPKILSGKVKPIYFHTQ

[2] = system: DHT mediated AR transcription in LNCaP cells; test: Transcriptional activation luciferase assay; type: cell-based, human; conditions: 10 μM compound, 10 nM DHT, 24 h
[3] = Solubility in ethanol or DMSO; type: physicochemical; conditions: prevented biological testing
AR [4] = molecular target: T2, AR (Homo sapiens, UniProt P10275, T878A); type: cell-based; conditions: LNCaP cells, 15 μM, 24 h, Western blot
T2 sequence (P10275 1-920 T878A): T1 sequence (P10275 1-920) with T878A

LNCaP cells = test: Cell growth inhibition; type: cell-based, human
AR [5] = molecular target: T2, AR; test: Immunocytochemical analysis of AR expression in LNCaP cells; conditions: 5 μM, 48 h

Structure (SMILES) | inhibition of DHT mediated transcription [2] | effect on AR protein expression (AR degradation / ARD activity) (AR [4]) | other results
C[C@]12CCC(=NO)C=C1CC[C@@H]1[C@@H]2CC[C@]2(C)C(n3cnc4ccccc43)=CC[C@@H]12 (mixture of isomers) [Compound 36, 3-((EZ)-Hydroximino)-17-(1H-Benzimidazol-1-yl)-androsta-4,16-diene] | 65–100% | – | effect on full-length and truncated AR (AR-3) expression [1]: could degrade both full-length and truncated AR; also recorded: significant down-regulation of both full-length and truncated AR
C[C@]12CC/C(=N\Oc3ccccc3)C=C1CC[C@@H]1[C@@H]2CC[C@]2(C)C(n3cnc4ccccc43)=CC[C@@H]12 (mixture of isomers) [Compound 37, 3-((EZ)-O-Phenyloxime)-17-(1H-Benzimidazol-1-yl)-androsta-4,16-diene] | – | – | solubility in ethanol or DMSO [3]: limited solubility in ethanol or DMSO
CO/N=C1/C=C2CC[C@@H]3[C@H](CC[C@]4(C)C(n5cnc6ccccc65)=CC[C@@H]34)[C@@]2(C)CC1 (mixture of isomers) [Compound 38, 3-((EZ)-O-Methyloxime)-17-(1H-Benzimidazol-1-yl)-androsta-4,16-diene] | 65–100% | – | –
C[C@]12CC/C(=N\OCc3ccccc3)C=C1CC[C@@H]1[C@@H]2CC[C@]2(C)C(n3cnc4ccccc43)=CC[C@@H]12 (mixture of isomers) [Compound 39, 3-((EZ)-(O-Phenylmethyl)oxime)-17-(1H-Benzimidazol-1-yl)-androsta-4,16-diene] | 65–100% | – | –
C[C@]12CC[C@H](O)CC1=CC[C@@H]1[C@@H]2CC[C@]2(C)C(n3cnc4cc(C#N)ccc43)=CC[C@@H]12 [Compound 18, 3β-Hydroxy-17-(5(6)-nitrile-1H-benzimidazol-1-yl)-androsta-5,16-diene] | – | diminished AR down-regulation (ARD) activity | GI50 (LNCaP cells; read-out: GI50, C-17 modified compounds, MTT, 7 days, at least three independent experiments, SEM < 10%): 2810 nM
COc1ccc2ncn(C3=CC[C@H]4[C@@H]5CC=C6C[C@@H](O)CC[C@]6(C)[C@H]5CC[C@]34C)c2c1 [Compound 19, 3β-Hydroxy-17-(6-methoxy-1H-benzimidazol-1-yl)-androsta-5,16-diene] | – | no modulation of ARDA | –
CC(C)CCNCC1=C(n2cnc3ccccc32)[C@@]2(C)CC[C@H]3[C@@H](CC=C4C[C@@H](O)CC[C@@]43C)[C@@H]2C1 [Compound 25, 3β-Hydoxy-17-(1H-benzimidazol-1-yl)-16-((isopentylamino)methyl)-androsta-5,16-diene] | 65–100% | significant loss of ARD | –
C[C@]12CC[C@H](O)CC1=CC[C@@H]1[C@@H]2CC[C@]2(C)C(n3cnc4ccccc43)=C(CNc3ccccc3)C[C@@H]12 [Compound 28, 3β-Hydoxy-17-(1H-benzimidazol-1-yl)-16-((phenylamino)methyl)-androsta-5,16-diene] | 65–100% | significant loss of ARD | –
COc1ccc(NCC2=C(n3cnc4ccccc43)[C@@]3(C)CC[C@H]4[C@@H](CC=C5C[C@@H](O)CC[C@@]54C)[C@@H]3C2)cc1OC [Compound 31, 3β-Hydoxy-17-(1H-benzimidazol-1-yl)-16-(((3,4-dimethoxyphenyl)amino)methyl)-androsta-5,16-diene] | – | significant loss of ARD | effect on full-length and truncated AR (AR-3) expression [1]: significant down-regulation of both full-length and truncated AR
C[C@]12CC[C@H](OS(C)(=O)=O)CC1=CC[C@@H]1[C@@H]2CC[C@]2(C)C(n3cnc4ccccc43)=CC[C@@H]12 [Compound 34, 3β-Mesyloxy-17-(1H-benzimidazol-1-yl)-androsta-5,16-dien] | 65–100% | – | –
C[C@]12CC[C@H](OC(=O)c3ccccn3)CC1=CC[C@@H]1[C@@H]2CC[C@]2(C)C(n3cnc4ccccc43)=CC[C@@H]12 [Compound 41, 3β-(Pyridine-2-carboxylate)-17-(1H-benzimidazol-1-yl)-androsta-5,16-diene] | – | – | solubility in ethanol or DMSO [3]: limited solubilities in ethanol or DMSO
C[C@]12CC[C@H](OC(=O)c3cccnc3)CC1=CC[C@@H]1[C@@H]2CC[C@]2(C)C(n3cnc4ccccc43)=CC[C@@H]12 [Compound 42, 3β-(Pyridine-3-carboxylate)-17-(1H-benzimidazol-1-yl)-androsta-5,16-diene] | – | – | solubility in ethanol or DMSO [3]: limited solubilities in ethanol or DMSO
C[C@]12CC[C@H](OC(=O)c3ccncc3)CC1=CC[C@@H]1[C@@H]2CC[C@]2(C)C(n3cnc4ccccc43)=CC[C@@H]12 [Compound 43, 3β-(Pyridine-4-carboxylate)-17-(1H-benzimidazol-1-yl)-androsta-5,16-diene] | – | – | effect on full-length and truncated AR (AR-3) expression [1]: could degrade both full-length and truncated AR
C[C@]12CC[C@H](OC(=O)n3ccnc3)CC1=CC[C@@H]1[C@@H]2CC[C@]2(C)C(n3cnc4ccccc43)=CC[C@@H]12 [Compound 47, 3β-(1H-Imidazole-1-carboxylate)-17-(1H-benzimidazol-1-yl)-androsta-5,16-diene] | 65–100% | most potent | AR levels in the nucleus (AR [5]): significant decrease in AR levels in the nucleus; fold more potent than compound 5, anti-proliferative activity (LNCaP cells; from GI50): 4 fold and ~ 4 fold; effect on full-length and truncated AR (AR-3) expression [1]: could degrade both full-length and truncated AR; also recorded: significant down-regulation of both full-length and truncated AR
Cc1nccn1C(=O)O[C@H]1CC[C@@]2(C)C(=CC[C@@H]3[C@@H]2CC[C@]2(C)C(n4cnc5ccccc54)=CC[C@@H]32)C1 [Compound 48, 3β-(2-Methyl-1H-imidazole-1-carboxylate)-17-(1H-benzimidazol-1-yl)-androsta-5,16-diene] | – | – | fold decrease in anti-proliferative activity relative to 47 (LNCaP cells; from GI50): 6 fold
C[C@]12CC[C@H](OC(=O)n3cncn3)CC1=CC[C@@H]1[C@@H]2CC[C@]2(C)C(n3cnc4ccccc43)=CC[C@@H]12 [Compound 49, 3β-(1H-1,2,4-Triazole-1-carboxylate)-17-(1H-benzimidazol-1-yl)-androsta-5,16-diene] | – | significant up-regulation of AR | –
